{"source": "patent US20230355646A1", "about": "“AUTOPHAGY ACTIVATOR” (Resonac Corporation, priority 2020, published 2023)", "system": "ATG5 gene", "assay": "ATG5 gene expression promoting effect in human neuroblastoma SH-SY5Y in the presence of amyloid β", "assay_type": "cell-based", "procedure": "In the presence of an autophagy activator, the expression levels of the LC3 gene, ATG5 gene, and ATG7 gene in human neuroblastoma (SH-SY5Y; obtained from ATCC) were measured by the following test method, and the effect of promoting the expression of the LC3 gene, ATG5 gene, and ATG7 gene by an autophagy activator was evaluated.\nIn the following examples and comparative examples, tests were performed by adding amyloid β, which is known to cause a decrease in autophagy in nerve cells, to each medium.\nSH-SY5Y cells were prepared at a seeding density of 10000 cells/cm^2 and cultured for 24 hours in D-MEM medium/Ham's F-12 medium (manufactured by Sigma-Aldrich) to which 10% fetal bovine serum (manufactured by MP Biomedicals) was added. Next, in Example 15, the methyl hesperidin DMSO solution was added to the medium such that the final concentration of methyl hesperidin was 10^−3% (V/V) and the final concentration of DMSO was 0.1% (V/V). […]\nThen, using Nucleospin (registered trademark) RNA kit (manufactured by Takara Bio Inc.), RNA was extracted from SH-SY5Y cells in each example, and cDNA was synthesized from the obtained RNA. Next, using this cDNA as a template, by quantitative real-time PCR, the expression level of each gene was quantified using primers (manufactured by Takara Bio Inc.) specific to the LC3 gene, ATG5 gene, and ATG7 gene, respectively. […]"}
{"smiles": "COc1ccc([C@@H]2CC(=O)c3c(O)cc(O[C@@H]4O[C@H](CO[C@@H]5O[C@@H](C)[C@H](O)[C@@H](O)[C@H]5O)[C@@H](O)[C@H](O)[C@H]4O)cc3O2)cc1O", "note": "[Comparative Example 2, hesperidin]", "values": [{"measurement": "expression level of the ATG5 gene (in words)", "setting": "SH-SY5Y cells with amyloid β, compared to DMSO and amyloid β of Comparative Example 5", "result": "increased"}, {"measurement": "Relative gene expression level ATG5", "setting": "SH-SY5Y cells, 20 μM amyloid β present, 10^−2% (V/V) methyl hesperidin or hesperidin, additional ingredient where in the example, 48 hours, Reference Example 3 = 1.00", "result": 3.29}]}
